# According to patent publication US8524682B2, “Compositions and methods for inhibiting EZH2” (The Regents of the University of Michigan, priority 2007, dated 2013):
# Legend:
# Assay type in all cases: cell-based
# EZH2 [1] = molecular target: T1, EZH2 (Homo sapiens, UniProt Q15910); test: Quantitative SYBR green RT-PCR of E cadherin transcripts in EZH2 overexpressing cells
# T1 construct: expressed in transfected cells
# Experimental: A, Chemical structure of the flavonoid isoliquiritigenin. B, Quantitative SYBR green RT-PCR of EZH2 and E cadherin transcripts in cell lines over expressing EZH2 and control adenoviruses. RT-PCR on each sample was performed in duplicate, and a ratio was calculated relative to the housekeeping genes GAPDH. Transcripts were also measured in cells that were treated with isoliquiritigenin or other small molecules.
# (§1) A, Dose response of isoliquiritigenin on inhibiting EZH2 mediated repression. B, A reconstituted basement membrane invasion chamber assay was used to assess the invasion of breast epithelial cell line infected with EZH2 and control adenoviruses as well as SET domain mutant EZH2 adenovirus. EZH2 treated cells were also treated with SAHA, the HDAC inhibitor and isoliquiritigenin, the small molecule inhibitor of EZH2 and the control small molecule phloretin.
# [2] = tested on: HME cells overexpressing EZH2; test: Basement membrane invasion chamber assay, breast cell line HME overexpressing EZH2
# Experimental: as §1
# EZH2 [3] = molecular target: T1, EZH2; test: E-cadherin promoter-luciferase reporter high throughput screen in EZH2 adenovirus infected cells; settings: final compound concentration about 5 μM, 24 hours
# Experimental: A high throughput screening protocol was used to identify small molecule inhibitors of EZH2. Primary breast cancer cells were transfected with the E-cadherin promoter luciferase reporter gene and infected with the EZH2 adenovirus to suppress luciferase expression 48 hours prior to compound addition. Eighteen hours prior to compound addition, cells were trypsinized and distributed into 384-well plates in 60 μl of medium using the Multidrop equipment. At time zero, compounds were transferred from 1.5 mM DMSO stocks to the cell plates in a final compound concentration of about 5 μM. […] After 24 hours, the expressed luciferase activity was measured by adding 50 μl of the medium and 10 μl of Steady-Glo luciferase reagent (Promega). Sample plates were read in the Pherastar plate reader (BMG Labtech). Each plate in the screen contains 320 compounds to be tested plus 64 control wells placed in the outer two columns on each side of the plate (>50,000 compounds are screened). […] More than 4000 small molecules were screened, which included synthetic chemicals as well as natural products that are available in the Center for Chemical Genomics (CCG) library at the University of Michigan.
# T1 sequence (Q15910 whole entry): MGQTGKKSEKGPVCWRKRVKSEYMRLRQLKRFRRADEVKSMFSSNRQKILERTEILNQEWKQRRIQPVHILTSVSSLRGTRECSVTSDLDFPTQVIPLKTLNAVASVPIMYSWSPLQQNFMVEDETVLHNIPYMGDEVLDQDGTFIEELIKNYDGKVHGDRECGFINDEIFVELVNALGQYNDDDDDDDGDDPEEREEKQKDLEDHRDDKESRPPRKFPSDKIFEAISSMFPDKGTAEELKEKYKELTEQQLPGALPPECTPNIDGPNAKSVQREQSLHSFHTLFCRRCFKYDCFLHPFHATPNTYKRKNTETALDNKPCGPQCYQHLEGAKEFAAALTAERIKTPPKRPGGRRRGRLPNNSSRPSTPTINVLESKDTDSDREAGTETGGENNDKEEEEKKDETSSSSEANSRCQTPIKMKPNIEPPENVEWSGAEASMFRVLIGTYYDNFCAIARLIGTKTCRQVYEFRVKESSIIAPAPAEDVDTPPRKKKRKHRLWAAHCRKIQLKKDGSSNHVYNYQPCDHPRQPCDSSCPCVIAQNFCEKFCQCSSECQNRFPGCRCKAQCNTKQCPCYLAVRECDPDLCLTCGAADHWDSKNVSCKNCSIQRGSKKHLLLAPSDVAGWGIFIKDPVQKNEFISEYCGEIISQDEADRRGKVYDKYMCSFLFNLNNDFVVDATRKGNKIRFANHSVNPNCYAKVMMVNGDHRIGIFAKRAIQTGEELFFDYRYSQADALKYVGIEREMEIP
smiles,measurement,setting,value
O=C(/C=C/c1ccc(O)cc1)c1ccc(O)cc1O [isoliquiritigenin],inhibition of EZH2 mediated E cadherin repression,"EZH2 [1]; RT-PCR, cells over expressing EZH2",significantly inhibit
same,concentration that optimally inhibits the EZH2 mediated E cadherin repression,EZH2 [1]; dose response,16 µM
same,inhibition of invasion mediated by EZH2 overexpression,[2],inhibited this invasion
same,EZH2 inhibitory activity,EZH2 [3],potent small molecule inhibitor of EZH2 activity
